{"source": "patent US10632106B2", "about": "“Methods of cancer treatment with 2-(1′H-Indole-3′-carbonyl)-thiazole-4-carboxylic acid methyl ester” (Ariagen, Inc., priority 2009, dated 2020)", "key": {"[1]": {"test_system": "MFC (mouse stomach cancer) homografts", "experiment": "MFC homograft (syngeneic) growth inhibition in 615 mice", "type": "in vivo", "conditions": "ITE 200-300 mg/kg i.p. once daily", "protocol": "(§1) All the procedures related to animal handling, care, and the treatment in the study were performed following guidelines of KeyGen Biotechn Co., Ltd. (Nanjing, China), a contract research organization we hired, based on the guidance of the Association for Assessment and Accreditation of Laboratory Animal Care (AAALAC). Animals were checked for any effects of tumor growth and drug treatment on normal behavior such as mobility, food and water consumption, body weight gain/loss (bodyweights were measured every two days), eye/hair matting, and any other abnormal effect. Death and observed clinical signs were recorded. Individual animals with a tumor volume exceeding 3,000 mm^3 or animals of a group with a mean tumor volume exceeding 2,000 mm^3 were euthanized. In addition, animals showing signs of severe distress and/or pain or losing the capability of accessing adequate food or water were humanely sacrificed.\n(§2) Cell lines HCT116, Siha, MFC were cultured in DMEM medium (high glucose) supplemented with 10% fetal bovine serum (FBS), SW116 and T24 in RPMI-1640 medium with 10% FBS, M14 and A375 in DMEM medium (high glucose) with 10% calf serum (CS), SGC7901 and Ketr-3 in RPMI-1640 medium with 10% CS, and CFPAC-1 in IMDM medium with 10% FBS. All of the cells were cultured, in the presence of 100 U/ml penicillin and 100 μg/ml streptomycin, at 37° C. in an atmosphere of 5% CO2 in air. […] The cells growing in an exponential phase were harvested and counted for tumor inoculation. Cell lines 5180 and U14 were maintained in ascites (peritoneal cavity fluid) of mice and were harvested and counted for tumor inoculation. […]\n(§3) Tumor volume was measured every two days in two dimensions using a caliper and the volume was calculated with a formula of: V=0.5 a×b^2, where a and b are the long and short diameter (in mm) of a tumor, respectively. […] The TGD was calculated as: TGD=T−C, where T was the time (in days) required for tumors in a drug treated group to reach a predetermined mean tumor volume and C the time (in days) in the control group to reach the same volume. […]"}, "[2]": {"test_system": "S180 (mouse soft tissue cancer/sarcoma) homografts", "experiment": "S180 homograft (syngeneic) growth inhibition in ICR mice", "type": "in vivo", "conditions": "ITE 200 mg/kg i.p. once daily", "protocol": "as §1, §2, §3"}, "[3]": {"conditions": "end of therapy relative to beginning"}}, "data": [{"smiles": "COC(=O)c1csc(C(=O)c2c[nH]c3ccccc23)n1", "note": "[ITE, 2-(1′H-indole-3′-carbonyl)-thiazole-4-carboxylic acid methyl ester]", "values": [{"measurement": "TGD", "setting": "[1]; TGD at Vol. 2,000", "value": 9, "unit": "days"}, {"measurement": "TGI (%)", "setting": "[1]; TGI at day 10, TGI=(1−ΔT/ΔC)×100%", "value": 70, "unit": "%"}, {"measurement": "Weight Loss", "setting": "[1]; [3]", "value": 16, "unit": "%"}, {"measurement": "TGD", "setting": "[2]; TGD at Vol. 2,000", "value": 1.5, "unit": "days"}, {"measurement": "TGI (%)", "setting": "[2]; TGI at day 8, TGI=(1−ΔT/ΔC)×100%", "value": 33, "unit": "%"}, {"measurement": "Weight Loss", "setting": "[2]; [3]", "value": 9, "unit": "%"}]}]}
